According to ChEMBL document CHEMBL4482316, “Compounds for the inhibition of angiogenesis and use thereof” (2013):
Activity calls are given as the source filed them. The rule behind the calls is not given here.

Columns and labels:
[1] = tested on: Mus musculus; assay: Inhibition of corneal neovascularization in C57 mouse dosed via implanted with pumps at 1 uL/hr for 7 days by fluorescence microscopy; assay type: functional, organism-based
[2] = tested on: Rattus norvegicus; assay: Inhibition of oxygen-induced retinal angiogenesis in Sprague-Dawley rat dosed in right eye at stage at P9 and P11 during ischemic phase that follows oxygen exposure by epifluorescent microscopy; assay type: functional, organism-based
[3] = tested on: K562; assay: Inhibition of cell adhesion in human K562 cells at 0.5 uM pre-incubated for 30 mins before cell adhesion to fibronectin for 30 mins by crystal violet staining based assay; assay type: functional
[4] = tested on: Rattus norvegicus; assay: Inhibition of retinal angiogenesis in newborn Sprague-Dawley rat dosed intravitreally at P1 stage and P3 by epifluorescent microscopy; assay type: functional, organism-based

| SMILES | inhibition [1] | inhibition [2] | inhibition [3] | inhibition [4] |
| --- | --- | --- | --- | --- |
| CC(C)(C)C(=O)N[C@@H](CNC(=O)CO[C@@H]1C[C@@H](CNc2ccccn2)N(C(=O)OCc2ccccc2)C1)C(=O)O | Active | Active | – | – |
| O=C(CO[C@@H]1C[C@@H](CNc2ccccn2)N(C(=O)OCc2ccccc2)C1)NC[C@H](NC(=O)c1ccccc1Cl)C(=O)O | Active | Active | – | – |
| COc1ccnc(NC[C@@H]2C[C@@H](OCC(=O)NC[C@H](NC(=O)C3(C)CCCCC3)C(=O)O)CN2C(=O)CC(C)(C)C)c1 | Active | Active | – | – |
| CCC(C)(C)C(=O)N[C@@H](CNC(=O)CO[C@@H]1C[C@@H](CNc2ccccn2)N(C(=O)OCc2ccccc2)C1)C(=O)O | Active | Active | – | – |
| Cc1cc(C)c(C(=O)N[C@@H](CNC(=O)CO[C@@H]2C[C@@H](CNc3ccccn3)N(C(=O)OCc3ccccc3)C2)C(=O)O)c(C)c1 | Active | Active | Active | – |
| C#CCOC(=O)N1C[C@H](OCC(=O)NC[C@H](NS(=O)(=O)c2c(C)cc(C)cc2C)C(=O)O)C[C@H]1CNc1ccccn1 | Active | Active | – | – |
| O=C(CO[C@@H]1C[C@@H](CNc2ccccn2)N(C(=O)OCc2ccccc2)C1)NC[C@H](NC(=O)c1ccccc1[N+](=O)[O-])C(=O)O | Active | Active | – | – |
| O=C(CO[C@@H]1C[C@@H](CNc2ccccn2)N(C(=O)OCc2ccccc2)C1)NC[C@H](NC(=O)C1CCCCC1)C(=O)O | Active | Active | – | – |
| Cc1cccc(C)c1C(=O)N[C@@H](CNC(=O)CO[C@@H]1C[C@@H](CNc2ccccn2)N(C(=O)OCc2ccccc2)C1)C(=O)O | Active | Active | – | – |
| Cc1cc(C)c(S(=O)(=O)N[C@@H](CNC(=O)CO[C@@H]2C[C@@H](CNc3ccccn3)N(C(=O)OCC(C)C)C2)C(=O)O)c(C)c1 | Active | Active | – | – |
| COc1cccc(OC)c1C(=O)N[C@@H](CNC(=O)CO[C@@H]1C[C@@H](CNc2ccccn2)N(C(=O)OCc2ccccc2)C1)C(=O)O | Active | Active | – | – |
| Cc1cc(C)c(S(=O)(=O)N[C@@H](CNC(=O)CO[C@@H]2C[C@@H](CNc3ccccn3)N(C(=O)OCc3ccccc3)C2)C(=O)O)c(C)c1 | Active | Active | – | Active |
| Cc1cc(C)c(S(=O)(=O)N[C@@H](CNC(=O)CO[C@@H]2C[C@@H](CNc3ccccn3)N(C(=O)NC3CCCC3)C2)C(=O)O)c(C)c1 | Active | Active | – | – |
| Cc1cc(C)c(S(=O)(=O)N[C@@H](CNC(=O)CO[C@@H]2C[C@@H](CNc3ccccn3)N(C(=O)CC(C)(C)C)C2)C(=O)O)c(C)c1 | Active | Active | – | – |
